One block for each compound: values may come before it.
What was measured:
WM-266.4 cells [1] = experiment: DNA synthesis, [3H]-thymidine incorporation; assay type: cell-based, human; conditions: 10 μM, 48 hours
Procedure: FIG. 4. Inhibition of cell growth by pharmacological agents. WM-266.4 cells were incubated in the presence of U0126 (10 μM) or BAY 43-9006 (10 μM) or the vehicle control (DMSO). After 48 hours, DNA synthesis was determined by incubating the cells with [^3H]-thymidine and the levels of thymidine incorporated into the cellular DNA was determined.
(§1) Colo 829 cells are a melanoma cell line that harbours a V599E mutation in the BRAF gene and BE cells are a colorectal line that harbour a G463 mutation in the BRAF gene (Davies et al., 2002). As we have shown, both of these mutations are activating (Davies et al., 2002). Finally, we tested the effects of these inhibitors on DNA synthesis.

WM266.4 = experiment: Inhibition of cell growth, sulphorhodamine B staining; assay type: cell-based, human; conditions: WM266.4 melanoma cells (BRAF V599D)
[2] = system: ERK activity in WM266.4 cells; experiment: Active ERK levels by Western blot with ppERK antibody; assay type: cell-based, human; conditions: 10 μM compound
Procedure: WM266.4 or A375P cells were treated with 10 μM U0126, 10 μM BAY 43-9006 or DMSO as a control. Equivalent amounts of cellular proteins were resolved on SDS-gels and the levels of active ERK were determined using the ppERK antibody.
FIG. 6. Ablation of BRAF, but not CRAF blocks ERK activity in melanoma cells. WM-266.4 or Colo 829 cells were treated with a BRAF specific siRNA probe (BRAF), or the scrambled control (sBRAF), or a CRAF specific probe (CRAF), or its scrambled control (sCRAF), or oligofectamine (oligo) or left untreated (control) as indicated. The cells were incubated for the times indicated, and the Colo 829 cells were treated for 24hours. The levels of ERK activity in equivalent amounts of cell extract was determined by Western blotting with the ppERK antibody.
In order to validate BRAF as a target in cancer, it is first tested whether the growth of cells that express activated, mutant forms of BRAF required the RAF-MEK-ERK signaling pathway for growth. To this end, melanoma and colorectal cell lines that harbour mutations in the BRAF gene are treated with pharmacological agents that block signaling through this pathway. Two compounds are tested. One is the compound U0126, which is a MEK inhibitor and which therefore uncouples RAF-ERK signaling in cells (Sebolt-Leopold et al., 1999). BAY 43-9006 os also tested. This is an inhibitor of RAF proteins (Lyons et al., 2001). […]

BE = experiment: Inhibition of cell growth, sulphorhodamine B staining; assay type: cell-based, human; conditions: BE colorectal cells (BRAF G463 mutation)
Procedure: as §1
(§2) Cell lines were incubated in the presence of increasing levels of BAY 43-9006 and the levels of cell growth were determined by sulphorhodamine B staining. The IC50 values were determined by non-linear regression analysis and are indicated.

Colo 829 = experiment: as above; assay type: cell-based, human; conditions: Colo 829 melanoma cells (BRAF V599E)
Procedure: as §1, §2

ERK (colo741 cells) = conditions: colo741, colorectal; B-Raf V599E
ERK (CHL cells) = conditions: melanoma, B-Raf wt
WM-266.4 cells [3] = experiment: Cell cycle analysis by FACS (propridium iodide); assay type: cell-based, human; conditions: 96 hours
Procedure: FIG. 7. Ablation of BRAF, but not CRAF induces apoptosis in melanoma cells. WM-266.4 cells were treated with a BRAF specific siRNA probe (BRAF), or the scrambled control (sBRAF), or a CRAF specific siRNA probe (CRAF), or U0126, or […] (oligo) or left untreated (control) as indicated. The cells were incubated for 96 hours and the cell cycle profile was analysed by FACS, or PARP expression was examined by Western blotting.
Finally, we examined how BRAF ablation affected cell growth, examining the effects on apoptosis in WM-266.4 cells. For these studies, the cells were fixed in 70% ethanol, stained with propridium iodide and their cell cycle profiles were examined by fluorescent activated cell sorting (FACS). Using this analysis, the apoptotic cells appear in the sub-G1 peak. In these cells, spontaneous apoptosis is very low, with less than 1% of the cell appearing in the sub-G1 peak (FIG. 7, table 5). […] We also examined PARP cleavage, a marker of the induction of apoptosis.
WM-266.4 cells were treated with U0126, DMSO, siRNA to BRAF, siRNA to CRAF or the scrambled siRNA control. The cells were incubated for 96 hours and the cells were fixed and stained with propridium iodide for cell cycle analysis by FACS. The proportion of cells in each phase of the cell cycle is shown.

ERK (NCI-H2087 cells) = conditions: NCI-H2087, NSCLC cell line pair; Ras onc; B-Raf L596V
Mawi = conditions: colorectal, Ras wt, B-Raf V599E
Excerpt: (§3) The second approach is to examine the effects of the compound U0126, an inhibitor of MEK1/2, the only known substrates for B-Raf.

SK-MEL-28 = conditions: SK-MEL-28, melanoma; Ras b; B-Raf V599E
Excerpt: as §3

NCI-H2087 = conditions: NCI-H2087, NSCLC cell line pair; Ras onc; B-Raf L596V
Excerpt: as §3

SW620 = conditions: SW620, colorectal; Ras onc; B-Raf wt
Excerpt: as §3

colo741 = conditions: colo741, colorectal; B-Raf V599E
Excerpt: as §3

A2058 = conditions: A2058, melanoma; B-Raf V599E
Excerpt: as §3

WM-266-4/WM-115 = conditions: WM-266-4/WM-115, melanoma; Ras b; B-Raf V599D
Excerpt: as §3

CHL = conditions: melanoma, B-Raf wt
Excerpt: as §3

ERK (Mawi cells) = conditions: colorectal, Ras wt, B-Raf V599E
[4] = system: ERK (WM-266-4/WM-115 cells); conditions: WM-266-4/WM-115, melanoma; Ras b; B-Raf V599D
ERK (SK-MEL-28 cells) = conditions: SK-MEL-28, melanoma; Ras b; B-Raf V599E
ERK (A2058 cells) = conditions: A2058, melanoma; B-Raf V599E
cellular Ras = experiment: cell-based or functional assay

IC50 (Colo 829): 5.1 µM | IC50, inhibition of cell growth (Colo 829): low micro-molar range
Compound: CNC(=O)c1cc(Oc2ccc(NC(=O)Nc3ccc(Cl)c(C(F)(F)F)c3)cc2)ccn1 [BAY 43-9006]
DNA synthesis ([3H]-thymidine incorporation) (WM-266.4 cells [1]): strongly suppressed | IC50 (WM266.4): 6.1 µM | IC50 (WM266.4; listed as BAY 43-9002): ~6.1 µM | ERK activity (ppERK Western blot) [2]: strongly suppressed | IC50 (BE): 5.4 µM | IC50, inhibition of cell growth (BE): low micro-molar range

Compound: N#CC(=C(/N)Sc1ccccc1N)/C(C#N)=C(\N)Sc1ccccc1N [U0126]
UO/ERK-inhib (ERK (colo741 cells)): 90% | DNA synthesis ([3H]-thymidine incorporation) (WM-266.4 cells [1]): strongly suppressed | UO/ERK-inhib (ERK (CHL cells)): >90% | Proportion of events, G1 (WM-266.4 cells [3]): 87.5% | Proportion of events, G2/M (WM-266.4 cells [3]): 7.8% | Proportion of events, S (WM-266.4 cells [3]): 1.3% | Proportion of events, Sub-G1 (WM-266.4 cells [3]; sub-G1 = apoptotic cells): ~3.5% | UO/ERK-inhib (ERK (NCI-H2087 cells)): >90% | U0 inhibit S (Mawi): 80% | U0 inhibit S (SK-MEL-28): 98% | U0 inhibit S (NCI-H2087): 56% | U0 inhibit S (SW620): 92% | U0 inhibit S (colo741): 76% | U0 inhibit S (A2058): 68% | U0 inhibit S (WM-266-4/WM-115): >99% | U0 inhibit S (CHL): 51% | UO/ERK-inhib (ERK (Mawi cells)): >90% | UO/ERK-inhib [4]: >90% | UO/ERK-inhib (ERK (SK-MEL-28 cells)): >90% | ERK activity (ppERK Western blot) [2]: strongly suppressed | UO/ERK-inhib (ERK (A2058 cells)): 80%

inhibition of growth (percentage of cells that do not incorporate BrdU) after micro-injection of Y13-259; A2058, melanoma, Ras not given, B-Raf V599E (cellular Ras): 0% | inhibition of growth (percentage of cells that do not incorporate BrdU) after micro-injection of Y13-259; CaCO2, colorectal, Ras wt, B-Raf wt (cellular Ras): 60% | inhibition of growth (percentage of cells that do not incorporate BrdU) after micro-injection of Y13-259; DLD1, colorectal, Ras K13Asp/wt, B-Raf wt (cellular Ras): 40% | inhibition of growth (percentage of cells that do not incorporate BrdU) after micro-injection of Y13-259; HCT-116, colorectal, Ras K13 Asp, B-Raf wt (cellular Ras): 95% | inhibition of growth (percentage of cells that do not incorporate BrdU) after micro-injection of Y13-259; HMV11-Riken, melanoma, Ras not given, B-Raf wt (cellular Ras): 100% | inhibition of growth (percentage of cells that do not incorporate BrdU) after micro-injection of Y13-259; HT29, colorectal, Ras wt, B-Raf V599E (cellular Ras): 15% | inhibition of growth (percentage of cells that do not incorporate BrdU) after micro-injection of Y13-259; JW2, colorectal, Ras K12, B-Raf wt (cellular Ras): 79% | inhibition of growth (percentage of cells that do not incorporate BrdU) after micro-injection of Y13-259; LS174T, colorectal, Ras K12Asp/wt, B-Raf wt (cellular Ras): 84% | inhibition of growth (percentage of cells that do not incorporate BrdU) after micro-injection of Y13-259; LS411N, colorectal, Ras not given, B-Raf V599E (first value) (cellular Ras): 0% | inhibition of growth (percentage of cells that do not incorporate BrdU) after micro-injection of Y13-259; LS411N, colorectal, Ras not given, B-Raf V599E (second value) (cellular Ras): 0% | inhibition of growth (percentage of cells that do not incorporate BrdU) after micro-injection of Y13-259; Malme, melanoma, Ras not given, B-Raf V599E (cellular Ras): 0% | inhibition of growth (percentage of cells that do not incorporate BrdU) after micro-injection of Y13-259; Mawi, colorectal, Ras wt, B-Raf V599E (cellular Ras): 5% | inhibition of growth (percentage of cells that do not incorporate BrdU) after micro-injection of Y13-259; NCI-H2087, NSCLC cell line pair, Ras onc, B-Raf L596V (cellular Ras): 77% | inhibition of growth (percentage of cells that do not incorporate BrdU) after micro-injection of Y13-259; SK-MEL-28, melanoma, Ras 'b', B-Raf V599E (cellular Ras): 4% | inhibition of growth (percentage of cells that do not incorporate BrdU) after micro-injection of Y13-259; SK-Mel2, melanoma, Ras not given, B-Raf wt (cellular Ras): 70% | inhibition of growth (percentage of cells that do not incorporate BrdU) after micro-injection of Y13-259; SW480, colorectal, Ras K12, B-Raf wt (cellular Ras): 57% | inhibition of growth (percentage of cells that do not incorporate BrdU) after micro-injection of Y13-259; SW620, colorectal, Ras onc, B-Raf wt (cellular Ras): 92% | inhibition of growth (percentage of cells that do not incorporate BrdU) after micro-injection of Y13-259; WM-266-4/WM-115, melanoma, Ras 'b', B-Raf V599D (cellular Ras): 10% | inhibition of growth (percentage of cells that do not incorporate BrdU) after micro-injection of Y13-259; colo205, colorectal, Ras wt, B-Raf V599E (cellular Ras): 3% | inhibition of growth (percentage of cells that do not incorporate BrdU) after micro-injection of Y13-259; colo741, colorectal, Ras not given, B-Raf V599E (cellular Ras): 0%
Compound: monoclonal antibody Y13-259
